41 molecules from US20250032485A1, “APPLICATION OF IMIDAZO [1,2-A] PYRAZINE COMPOUNDS OR THEIR PHARMACEUTICALLY ACCEPTABLE SALTS IN THE PREPARATION OF ANTI-CORONAVIRUS DRUGS” (GUANGZHOU MEDICAL UNIVERSITY, priority 2023, published 2025) can be followed below.

The assay has as its target PLpro of SARS-CoV-2 (Severe acute respiratory syndrome coronavirus 2, UniProt P0DTD1). As to the kind of experiment: Enzyme activity test in vitro: inhibition of PLpro at fixed concentration 50 μM (RLRGG-AMC substrate). Conditions: read-out: Inhibition rate at 50 μM (%). It is filed as biochemical.

SMILES strings stand for the structures.

By inhibition is commonly meant the change of the read-out against control, counted positive when it falls. In the case of `O=C(NCC1CCCO1)c1ccc(Nc2c(-c3ccccc3)nc3cnccn23)cc1` (centres unmarked) [P22463, N-(oxolan-2-ylmethyl)-4-[(2-phenylimidazo [1,2-a]pyrazin-3-yl)amino]benzamide], the inhibition at 50 µM was 25.8%.

As to `CN(C)CCNC(=O)c1cccc(Nc2c(-c3ccc(Cl)cc3)nc3cnccn23)c1` [P22457, 3-[[2-(4-chlorophenyl)imidazo[1,2-a]pyrazin-3-yl]amino]-N-[2-(dimethylamino)ethyl]benzamide], the inhibition at 50 µM is 38.6%.

With `CCc1cccc(C)c1Nc1c(-c2ccc(OC)c(OC)c2)nc2cnccn12` [P19513, 2-(3,4-dimethoxy-phenyl)-N-(2-ethyl-6-methylphenyl)imidazo [1,2-a]pyrazin-3-amine], the inhibition at 50 µM came to 38.8%.

For the molecule `COC(=O)c1ccc(-c2nc3cnccn3c2NC2CCCCC2)cc1` [P24359, methyl 4-[3-(cyclohexylamino)imidazo[1,2-a]pyrazin-2-yl]benzoate], the inhibition at 50 µM was found to be 37.1%.

Regarding `O=C(NCC1CCCO1)c1cccc(Nc2c(-c3ccccc3)nc3cnccn23)c1` (centres unmarked) [P22477, N-(oxolan-2-ylmethyl)-3-[(2-phenylimidazo [1,2-a]pyrazin-3-yl)amino]benzamide], the inhibition at 50 µM was 41%.

With `CSc1ccc(-c2nc3cnccn3c2Nc2ccc(C(=O)N3CCOCC3)cc2)cc1` [P22425, [4-[[2-(4-methyl-sulfanylphenyl)imidazo [1,2-a]pyrazin-3-yl]amino]phenyl]-morpholin-4-ylmethanone], the inhibition at 50 µM stood at 40.7%.

Turning to `CNC(=O)c1cccc(Nc2c(-c3ccc(Cl)cc3)nc3cnccn23)c1` [P19512, 3-[[2-(4-chlorophenyl)imidazo[1,2-a]pyrazin-3-yl]amino]-N-methylbenzamide], the inhibition at 50 µM is 41.6%.

Take `COc1ccc(-c2nc3cnccn3c2Nc2ccc(C(=O)N3CCCCC3)cc2)cc1OC` [P22460, [4-[[2-(3,4-dimethoxy-phenyl)imidazo[1,2-a]pyrazin-3-yl]amino]phenyl]-piperidin-1-ylmethanone]: the inhibition at 50 µM was 31.8%.

Regarding `CNC(=O)c1cccc(Nc2c(-c3ccc(SC)cc3)nc3cnccn23)c1` [P22436, N-methyl-3-[[2-(4-methylsulfanylphenyl)imidazo[1,2-a]pyrazin-3-yl]amino] benzamide], the inhibition at 50 µM was determined as 31.3%.

With `Cc1cccc(C)c1Nc1c(-c2ccccc2)nc2cnccn12` [P32333, N-(2,6-dimethylphenyl)-2-phenylimidazo [1,2-a]pyrazin-3-amine], the inhibition at 50 µM is 35.8%.

For `COc1ccc(-c2nc3cnccn3c2Nc2ccc(Cl)cc2)cc1OC` [P19503, N-(4-chlorophenyl)-2-(3,4-dimethoxy-phenyl)imidazo[1,2-a]pyrazin-3-amine], the inhibition at 50 µM stood at 43.6%.

For the molecule `COc1ccc(-c2nc3cnccn3c2Nc2ccc(C(=O)NCCN(C)C)cc2)cc1` [P22443, N-[2-(dimethylamino)ethyl]-4-[[2-(4-methoxyphenyl)imidazo[1,2-a]pyrazin-3-yl]amino]benzamide], the inhibition at 50 µM is 41.2%.

Consider `CCOC(=O)c1ccc(Nc2c(-c3ccccc3)nc3cnccn23)cc1` [P22483, ethyl 4-[(2-phenylimidazo [1,2-a]pyrazin-3-yl)amino]benzoate], for which the inhibition at 50 µM worked out at 29.4%.

On to `COc1ccc(-c2nc3cnccn3c2Nc2ccc(C(=O)O)cc2)cc1` [P19514, 4-[[2-(4-methoxy-phenyl)imidazo[1,2-a]pyrazin-3-yl]amino] benzoic acid], for which the inhibition at 50 µM amounted to 36%.

Take `O=C(NCc1ccco1)c1ccc(Nc2c(-c3ccccc3)nc3cnccn23)cc1` [P22435, N-(furan-2-ylmethyl)-4-[(2-phenylimidazo [1,2-a]pyrazin-3-yl)amino]benzamide]: the inhibition at 50 µM was 23.9%.

In the case of `CCOC(=O)c1ccc(Nc2c(-c3cccc(Br)c3)nc3cnccn23)cc1` [P22532, ethyl 4-[[2-(3-bromophenyl)imidazo[1,2-a]pyrazin-3-yl]amino] benzoate], the inhibition at 50 µM was 24.2%.

Take `CCOC(=O)c1ccc(Nc2c(-c3ccccc3O)nc3cnccn23)cc1` [P22512, ethyl 4-[[2-(2-hydroxy-phenyl)imidazo[1,2-a]pyrazin-3-yl]amino] benzoate]: the inhibition at 50 µM was found to be 26.9%.

With `O=C(O)c1cccc(Nc2c(-c3cccc(Cl)c3)nc3cnccn23)c1` [P19457, 3-[[2-(3-chlorophenyl)imidazo[1,2-a]pyrazin-3-yl]amino] benzoic acid], the inhibition at 50 µM came out at 39.7%.

For `CCNC(=O)c1ccc(Nc2c(-c3ccc(C)cc3)nc3cnccn23)cc1` [P22412, N-ethyl-4-[[2-(4-methylphenyl)imidazo [1,2-a]pyrazin-3-yl]amino]benzamide], the inhibition at 50 µM came out at 33.5%.

On to `COc1ccc(-c2nc3cnccn3c2Nc2cccc(C(=O)NCc3ccco3)c2)cc1` [P22459, N-(furan-2-ylmethyl)-3-[[2-(4-methoxy-phenyl)imidazo[1,2-a]pyrazin-3-yl]amino]benzamide], for which the inhibition at 50 µM turned out to be 35.4%.

Take `COC(=O)c1cccc(Nc2c(-c3ccc(O)cc3)nc3cnccn23)c1` [P37327, methyl 3-[[2-(4-hydroxy-phenyl)imidazo[1,2-a]pyrazin-3-yl]amino] benzoate]: the inhibition at 50 µM came to 48.5%.

`COC(=O)c1ccc(-c2nc3cnccn3c2Nc2cccc(C(=O)OC)c2)cc1` [P19494, methyl 3-[[2-(4-methoxy-carbonylphenyl)imidazo [1,2-a]pyrazin-3-yl]amino]benzoate]: the inhibition at 50 µM was 25.4%.

As for `Cc1ccc(-c2nc3cnccn3c2Nc2ccc(C(=O)NCc3ccco3)cc2)cc1` [P22455, N-(furan-2-ylmethyl)-4-[[2-(4-methyl-phenyl)imidazo[1,2-a]pyrazin-3-yl]amino] benzamide], the inhibition at 50 µM came out at 40.1%.

`CC(C)NC(=O)c1ccc(Nc2c(-c3ccc(Cl)cc3)nc3cnccn23)cc1` [P22442, 4-[[2-(4-chlorophenyl)imidazo[1,2-a]pyrazin-3-yl]amino]-N-propan-2-ylbenzamide]: the inhibition at 50 µM is 37.1%.

As to `COC(=O)c1cccc(Nc2c(-c3cccc(Br)c3)nc3cnccn23)c1` [P32343, methyl 3-[[2-(3-bromophenyl)imidazo[1,2-a]pyrazin-3-yl]amino] benzoate], the inhibition at 50 µM was 12.9%.

Take `Fc1ccc(-c2nc3cnccn3c2Nc2ccc3c(c2)OCO3)cc1` [P28366, N-(1,3-benzodioxol-5-yl)-2-(4-fluoro-phenyl)imidazo[1,2-a]pyrazin-3-amine]: the inhibition at 50 µM stood at 36.3%.

Regarding `COc1ccc(Nc2c(-c3ccc(OC)c(OC)c3)nc3cnccn23)cc1` [P19493, 2-(3,4-dimethoxy-phenyl)-N-(4-methoxy-phenyl)imidazo[1,2-a]pyrazin-3-amine], the inhibition at 50 µM came out at 32.3%.

For `COc1ccc(-c2nc3cnccn3c2Nc2ccc(C(=O)NCC3CCCO3)cc2)cc1OC` (centres unmarked) [P22440, 4-[[2-(3,4-dimethoxy-phenyl)imidazo[1,2-a]pyrazin-3-yl]amino]-N-(oxolan-2-ylmethyl)benzamide], the inhibition at 50 µM came to 33.5%.

In the case of `COc1ccc(-c2nc3cnccn3c2Nc2ccc(C(=O)NCc3ccco3)cc2)cc1OC` [P22480, 4-[[2-(3,4-dimethoxy-phenyl)imidazo[1,2-a]pyrazin-3-yl]amino]-N-(furan-2-ylmethyl)benzamide], the inhibition at 50 µM is 40.6%.

As for `O=C(O)c1ccc(Nc2c(-c3ccc(N4CCOCC4)cc3)nc3cnccn23)cc1` [P24813, 4-[[2-(4-morpholin-4-ylphenyl)imidazo [1,2-a]pyrazin-3-yl]amino]benzoic acid], the inhibition at 50 µM came to 31.9%.

As for `CC(C)NC(=O)c1cccc(Nc2c(-c3ccccc3)nc3cnccn23)c1` [P22476, 3-[(2-phenylimidazo [1,2-a]pyrazin-3-yl)amino]-N-propan-2-ylbenzamide], the inhibition at 50 µM worked out at 29%.

Regarding `O=C(O)c1ccc(Nc2c(-c3cc(Br)ccc3O)nc3cnccn23)cc1` [P22503, 4-[[2-(5-bromo-2-hydroxyphenyl)imidazo [1,2-a]pyrazin-3-yl]amino]benzoic acid], the inhibition at 50 µM turned out to be 27.6%.

For `O=C(c1ccc(Nc2c(-c3ccccc3)nc3cnccn23)cc1)N1CCCCC1` [P22444, [4-[(2-phenylimidazo [1,2-a]pyrazin-3-yl)amino]phenyl]-piperidin-1-ylmethanone], the inhibition at 50 µM is 43.9%.

For the molecule `CCOC(=O)c1ccc(Nc2c(-c3ccc(C(=O)OC)cc3)nc3cnccn23)cc1` [P22521, methyl 4-[3-(4-ethoxy-carbonylanilino)imidazo[1,2-a]pyrazin-2-yl]benzoate], the inhibition at 50 µM amounted to 22%.

Regarding `O=C(c1cccc(Nc2c(-c3ccc(Cl)cc3)nc3cnccn23)c1)N1CCCCC1` [P22468, [3-[[2-(4-chlorophenyl)imidazo[1,2-a]pyrazin-3-yl]amino]phenyl]-piperidin-1-ylmethanone], the inhibition at 50 µM is 29%.

For `COC(=O)c1ccc(-c2nc3cnccn3c2Nc2c(C)cccc2C)cc1` [P37307, methyl 4-[3-(2,6-dimethyl-anilino)imidazo[1,2-a]pyrazin-2-yl] benzoate], the inhibition at 50 µM came to 43.4%.

With `CCNC(=O)c1cccc(Nc2c(-c3ccc(OC)cc3)nc3cnccn23)c1` [P28734, N-ethyl-3-[[2-(4-methoxyphenyl)imidazo[1,2-a]pyrazin-3-yl]amino]benzamide], the inhibition at 50 µM worked out at 41%.

On to `Cc1ccc(-c2nc3cnccn3c2Nc2ccc(C(=O)N3CCCCC3)cc2)cc1` [P22464, [4-[[2-(4-methyl-phenyl)imidazo[1,2-a]pyrazin-3-yl]amino]phenyl]-piperidin-1-ylmethanone], for which the inhibition at 50 µM stood at 29.6%.

For `CSc1ccc(-c2nc3cnccn3c2Nc2cccc(C(N)=O)c2)cc1` [P19502, 3-[[2-(4-methyl-sulfanylphenyl)imidazo [1,2-a]pyrazin-3-yl]amino]benzamide], the inhibition at 50 µM stood at 39.1%.

As for `COc1ccc(-c2nc3cnccn3c2Nc2c(C)cccc2C)cc1OC` [P19483, 2-(3,4-dimethoxy-phenyl)-N-(2,6-di-methylphenyl)imidazo [1,2-a]pyrazin-3-amine], the inhibition at 50 µM was 37.8%.

In the case of `O=C(c1cccc(Nc2c(-c3ccccc3)nc3cnccn23)c1)N1CCOCC1` [P22409, morpholin-4-yl-[3-[(2-phenylimidazo [1,2-a]pyrazin-3-yl)amino]phenyl] methanone], the inhibition at 50 µM came to 28.2%.
